Measurements: ChEMBL document CHEMBL1201862, “PubChem BioAssay data set” (2004)
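These data come from cells grown in 96-well plates and exposed to compound for 48 hours at five concentrations. GI50 marks 50% less growth.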 The source made the active and inactive calls. No stated cut-off is given here; in the data, active = GI50 up to about 1.1 µM and inactive = higher.

Columns and labels:
Test in all cases: growth of human tumour cells (NCI), 48 h
[1] = tested on: ACHN
[2] = tested on: MCF7
[3] = tested on: HT-29
[4] = tested on: SNB-19
[5] = tested on: OVCAR-4
[6] = tested on: SW-620
[7] = tested on: MDA-MB-435
[8] = tested on: SF-295
[9] = tested on: KM12
[10] = tested on: PC-3
[11] = tested on: OVCAR-5
[12] = tested on: NCI-H460
[13] = tested on: NCI-H23
[14] = tested on: CAKI-1
[15] = tested on: UACC-62
[16] = tested on: UACC-257
[17] = tested on: HOP-92
[18] = tested on: HL-60

| Structure (SMILES) | GI50 [1] | GI50 [2] | GI50 [3] | GI50 [4] | GI50 [5] | GI50 [6] | GI50 [7] | GI50 [8] | GI50 [9] | GI50 [10] | GI50 [11] | GI50 [12] | GI50 [13] | GI50 [14] | GI50 [15] | GI50 [16] | GI50 [17] | GI50 [18] |
| --- | --- | --- | --- | --- | --- | --- | --- | --- | --- | --- | --- | --- | --- | --- | --- | --- | --- | --- |
| COC1=C(OC)C(=O)C(Cc2c(Cl)nc3sc(C)cn23)=C(C)C1=O | 17.1 µM (inactive) | 19.5 µM (inactive) | 17.9 µM (inactive) | 17.9 µM (inactive) | 7.5 µM (inactive) | 21.3 µM (inactive) | 18.2 µM (inactive) | 16.6 µM (inactive) | 13.3 µM (inactive) | 16 µM (inactive) | 18.2 µM (inactive) | 16.7 µM (inactive) | 13.7 µM (inactive) | 24.5 µM (inactive) | 11.6 µM (inactive) | 10.4 µM (inactive) | – | – |
| COc1ccc2nc3cccc([N+](=O)[O-])c3c(NCCN(C)C)c2c1 | 0.0585 µM (active) | 0.0555 µM (active) | 0.0573 µM (active) | 0.282 µM (active) | 0.116 µM (active) | 0.14 µM (active) | 0.0826 µM (active) | 0.233 µM (active) | 0.158 µM (active) | 0.108 µM (active) | 0.173 µM (active) | 0.0165 µM (active) | 0.136 µM (active) | 0.18 µM (active) | – | 0.191 µM (active) | 0.057 µM (active) | – |
| O=C(/C=C/c1ccsc1)c1cccs1 | 52.1 µM (inactive) | 17 µM (inactive) | 36.9 µM (inactive) | 42.6 µM (inactive) | 44.8 µM (inactive) | 17.3 µM (inactive) | > 10 µM (inactive) | 64.7 µM (inactive) | 19.4 µM (inactive) | 69.5 µM (inactive) | 44.1 µM (inactive) | 41.7 µM (inactive) | 22.5 µM (inactive) | 27.3 µM (inactive) | 25.4 µM (inactive) | 66.8 µM (inactive) | 29.4 µM (inactive) | – |
| CSc1nncc(-c2cc3c(c(SC)n2)CCCC3)n1 | > 100 µM (inactive) | – | > 100 µM (inactive) | > 100 µM (inactive) | > 100 µM (inactive) | > 100 µM (inactive) | > 100 µM (inactive) | > 100 µM (inactive) | > 100 µM (inactive) | > 100 µM (inactive) | > 100 µM (inactive) | > 100 µM (inactive) | > 100 µM (inactive) | 61.5 µM (inactive) | > 100 µM (inactive) | > 100 µM (inactive) | – | > 100 µM (inactive) |
| C=CC[C@@H]1C(=O)[C@@]2(O[Si](C(C)C)(C(C)C)C(C)C)CC[C@@H]1C[C@H]2NC(=O)OCC(Cl)(Cl)Cl | 73.8 µM (inactive) | – | > 100 µM (inactive) | > 100 µM (inactive) | > 100 µM (inactive) | > 100 µM (inactive) | > 100 µM (inactive) | 5.35 µM (inactive) | > 100 µM (inactive) | 32.9 µM (inactive) | > 100 µM (inactive) | 35.5 µM (inactive) | > 100 µM (inactive) | 59.2 µM (inactive) | > 100 µM (inactive) | 43.8 µM (inactive) | – | – |
| C[C@]12c3c4cc(NC(=O)C(=O)NCc5ccc(-c6ccccn6)nc5)cc3Oc3cc(NC(=O)C(=O)NCc5ccc(-c6ccccn6)nc5)cc(c31)OC1C=C(NC(=O)C(=O)NCc3ccc(-c5ccccn5)nc3)C=C(O4)C12 (some centres undefined) | 14.3 µM (inactive) | 33.7 µM (inactive) | 12.1 µM (inactive) | > 100 µM (inactive) | 3.47 µM (inactive) | > 100 µM (inactive) | 97.9 µM (inactive) | 25.4 µM (inactive) | 16.3 µM (inactive) | 61.5 µM (inactive) | > 100 µM (inactive) | 17.1 µM (inactive) | – | 21.2 µM (inactive) | 24.5 µM (inactive) | 52.2 µM (inactive) | – | 14.6 µM (inactive) |
| COc1ccc(N[C@H](C[S+]([O-])c2ccc(C)cc2)c2ccc(F)cc2)cc1 (some centres undefined) | 52.6 µM (inactive) | 16.6 µM (inactive) | > 100 µM (inactive) | 35.8 µM (inactive) | 94.2 µM (inactive) | > 100 µM (inactive) | > 100 µM (inactive) | 41.8 µM (inactive) | > 100 µM (inactive) | 82.4 µM (inactive) | > 100 µM (inactive) | 91.2 µM (inactive) | 13.2 µM (inactive) | > 100 µM (inactive) | 34.4 µM (inactive) | > 100 µM (inactive) | – | – |
| COCCOC(=O)C1=C(O)c2ccccc2S(=O)(=O)N1C | > 100 µM (inactive) | – | > 100 µM (inactive) | > 100 µM (inactive) | > 100 µM (inactive) | > 100 µM (inactive) | > 100 µM (inactive) | > 100 µM (inactive) | > 100 µM (inactive) | > 100 µM (inactive) | > 100 µM (inactive) | > 100 µM (inactive) | > 100 µM (inactive) | > 100 µM (inactive) | > 100 µM (inactive) | > 100 µM (inactive) | > 100 µM (inactive) | > 100 µM (inactive) |
